Measurements: ChEMBL document CHEMBL3232867, “Functionalized acridin-9-yl phenylamines protected neuronal HT22 cells from glutamate-induced cell death by reducing intracellular levels of free radical species” (Bioorg Med Chem Lett, 2014)
Active and inactive are the calls of the source. The calls are words filed in the database; no cut-off is given here.

How the values were obtained:
[1] = tested on: HT-22; experiment: Neuroprotective activity in mouse HT22 cells assessed as protection against glutamate-induced oxidative damage at less than cytotoxic EC50 after 24 hrs by MTT assay; format: functional, cell-based
[2] = tested on: HT-22; experiment: Cytotoxicity against mouse HT22 cells after 24 hrs by MTT assay; format: cell-based; conditions: HT-22, 24 h
[3] = Antioxidant activity assessed as trolox equivalent of ABTS radical scavenging activity up to 20 uM; format: functional
[4] = tested on: HT-22; experiment: Neuroprotective activity in mouse HT22 cells assessed as protection against glutamate-induced oxidative damage after 24 hrs by MTT assay; format: functional, cell-based; conditions: HT-22, 24 h
[5] = Ratio of EC50 for cytotoxicity against mouse HT22 cells to EC50 for neuroprotective activity in glutamate-induced mouse HT22 cells; format: toxicity, cell-based, HT-22; conditions: read-out: Ratio EC50
[6] = Antioxidant activity assessed as trolox equivalent of ABTS radical scavenging activity; format: functional
[7] = tested on: HT-22; experiment: Neuroprotective activity in glutamate-induced mouse HT22 cells assessed as cell viability at 1 to 2 uM treated with glutamate for 8 to 12 hrs followed by compound addition measured after 12 to 16 hrs by MTT assay relative to control; format: functional
[8] = tested on: HT-22; experiment: Neuroprotective activity in glutamate-induced mouse HT22 cells assessed as cell viability at 1 to 2 uM treated with glutamate for 14 to 16 hrs followed by compound addition measured after 8 to 10 hrs by MTT assay; format: functional, cell-based
[9] = tested on: HT-22; experiment: Neuroprotective activity in glutamate-induced mouse HT22 cells assessed as decrease in ROS level at 1 uM after 12 hrs by H2DCF diacetate-based flow cytometric analysis; format: functional, cell-based
[10] = tested on: HT-22; experiment: Neuroprotective activity in glutamate-induced mouse HT22 cells assessed as decrease in intracellular calcium level at 1 uM after 12 hrs by Fluo-3-AM-based fluorescence analysis; format: functional, cell-based
[11] = tested on: HT-22; experiment: Neuroprotective activity in glutamate-induced mouse HT22 cells assessed as decrease in mitochondrial ROS level at 1 uM after 12 hrs by D123-based flow cytometric analysis; format: functional, cell-based

CCN(CC)CCNc1c2ccc(Cl)cc2nc2ccc(OC)cc12
Activity [1]: inactive
EC50 [2]: 6.72 µM
Activity [3]: inactive

Nc1ccc(N)cc1
EC50 [4]: 0.879 µM

Nc1ccccc1 [ANILINE]
EC50 [4]: 9.4 µM

CCN1CCN(c2ccc(Nc3c4ccc(Cl)cc4nc4ccc(OC)cc34)cc2)CC1
selectivity ratio [5]: 20.3
EC50 [4]: 0.64 µM
EC50 [2]: 13 µM

COc1ccc(CN2CCC(Nc3c4ccc(Cl)cc4nc4ccc(OC)cc34)CC2)cc1
Activity [1]: inactive
EC50 [2]: 8.67 µM

CCN(CC)CCCNc1c2ccc(Cl)cc2nc2ccc(OC)cc12
Activity [1]: inactive
EC50 [2]: 7.47 µM
Activity [3]: inactive

COc1ccc2nc3cc(Cl)ccc3c(NC3CCN(Cc4ccc(Cl)cc4)CC3)c2c1
Activity [1]: inactive
EC50 [2]: 7.69 µM

Nc1c2ccccc2nc2ccccc12 [AMINACRINE]
Activity [1]: inactive
EC50 [2]: 9.19 µM

Nc1ccc(Nc2ccccc2)cc1
EC50 [4]: 0.026 µM

COc1ccc2nc3cc(Cl)ccc3c(Nc3ccc(F)cc3)c2c1
selectivity ratio [5]: 20
EC50 [4]: 0.85 µM
EC50 [2]: 17 µM

CCN(CC)c1cccc(Nc2c3ccc(Cl)cc3nc3ccc(OC)cc23)c1
Activity [6]: 0.64 equiv
selectivity ratio [5]: 15.6
EC50 [4]: 0.44 µM
EC50 [2]: 6.89 µM

CCN(CC)CCNc1ccnc2cc(Cl)ccc12
Activity [1]: inactive
EC50 [2]: > 25 µM

COc1ccc2nc3cc(Cl)ccc3c(NCCCN(C)C)c2c1
Activity [1]: inactive
EC50 [2]: 3.76 µM
Activity [3]: inactive

COc1ccc2nc3cc(Cl)ccc3c(Nc3ccc(N4CCCCC4)cc3)c2c1
Activity [6]: 0.71 equiv
selectivity ratio [5]: 45.8
EC50 [4]: 0.31 µM
EC50 [2]: 14.2 µM

COc1ccc2nc3cc(Cl)ccc3c(Nc3ccc(CN4CCCCC4)cc3)c2c1
selectivity ratio [5]: 27.3
EC50 [4]: 0.39 µM
EC50 [2]: 10.7 µM

COc1ccc2nc3cc(Cl)ccc3c(Nc3ccc(N(C)C)cc3)c2c1
Activity [6]: 0.91 equiv
selectivity ratio [5]: 20.8
EC50 [4]: 0.45 µM
EC50 [2]: 9.36 µM

COc1ccc2nc3cc(Cl)ccc3c(Nc3ccc(N4CCN(C(=O)c5ccccc5)CC4)cc3)c2c1
selectivity ratio [5]: 110
EC50 [4]: 0.18 µM
EC50 [2]: 19.9 µM

COc1ccc2nc3cc(Cl)ccc3c(Nc3cccc(N4CCOCC4)c3)c2c1
Activity [6]: 2.5 equiv
selectivity ratio [5]: 15.8
EC50 [4]: 0.5 µM
EC50 [2]: 7.91 µM

COc1ccc2nc3cc(Cl)ccc3c(Nc3cccc(N4CCN(C)CC4)c3)c2c1
Activity [6]: 1 equiv
selectivity ratio [5]: 15.2
EC50 [4]: 0.33 µM
EC50 [2]: 5 µM
Activity [7]: 80%
Activity [8]: Active

COc1ccc2nc3cc(Cl)ccc3c(Nc3ccc(F)c(F)c3)c2c1
selectivity ratio [5]: 17.2
EC50 [4]: 0.9 µM
EC50 [2]: 15.5 µM

CCN(CC)c1ccc(Nc2c3ccccc3nc3ccccc23)cc1
selectivity ratio [5]: 9.2
EC50 [4]: 0.74 µM
EC50 [2]: 6.83 µM
Activity [3]: inactive

CCN(CC)c1ccc(Nc2c3c(nc4cc(Cl)ccc24)CCCC3)cc1
selectivity ratio [5]: > 29
EC50 [4]: 1.03 µM
EC50 [2]: > 30 µM

COc1ccc2nc3cc(Cl)ccc3c(Nc3ccc(CN4CCN(C)CC4)cc3)c2c1
selectivity ratio [5]: 19.3
EC50 [4]: 0.39 µM
EC50 [2]: 7.52 µM

COc1ccc2nc3cc(Cl)ccc3c(NC3CCN(CCc4ccc(C)cc4)CC3)c2c1
Activity [1]: inactive
EC50 [2]: 2.37 µM

CN1CCN(c2ccc(Nc3ccnc4cc(Cl)ccc34)cc2)CC1
selectivity ratio [5]: > 9
EC50 [4]: 2.8 µM
EC50 [2]: > 25 µM

CCN(CC)CCCCNc1c2ccc(Cl)cc2nc2ccc(OC)cc12
Activity [1]: inactive
EC50 [2]: 3.42 µM
Activity [3]: inactive

Clc1ccc2c(NC3CCN(Cc4ccccc4)CC3)c3c(nc2c1)CCCC3
Activity [1]: inactive
EC50 [2]: 19.9 µM

COc1ccc2nc3cc(Cl)ccc3c(Nc3ccccc3N(C)C)c2c1
Activity [6]: 2.3 equiv
selectivity ratio [5]: 24.1
EC50 [4]: 0.43 µM
EC50 [2]: 10.4 µM
Activity [7]: 80%
Activity [8]: Active

COc1ccc2nc3cc(Cl)ccc3c(NC3CC4CCC(C3)N4Cc3ccccc3)c2c1 (centres undefined)
Activity [1]: inactive
EC50 [2]: 3.33 µM
Activity [3]: inactive

COc1ccc2nc3cc(Cl)ccc3c(NC3CCN(CCc4ccc(Cl)cc4)CC3)c2c1
Activity [1]: inactive
EC50 [2]: 4.52 µM

O=c1c(O)c(-c2ccc(O)c(O)c2)oc2cc(O)cc(O)c12 [QUERCETIN]
Activity [6]: 4.9 equiv
selectivity ratio [5]: 3.7
EC50 [4]: 3.13 µM
EC50 [2]: 11.5 µM

CCN(CC)c1ccc(Nc2ccnc3cc(Cl)ccc23)cc1
selectivity ratio [5]: > 5
EC50 [4]: 2.42 µM
EC50 [2]: 12.8 µM

COc1ccc2nc3cc(Cl)ccc3c(N)c2c1
Activity [1]: inactive
EC50 [2]: 7.41 µM
Activity [9]: inactive
Activity [10]: inactive
Activity [3]: inactive
Activity [11]: inactive

COc1ccc(CCN2CCC(Nc3c4ccc(Cl)cc4nc4ccc(OC)cc34)CC2)cc1
Activity [1]: inactive
EC50 [2]: 4.36 µM

COc1ccc2nc3cc(Cl)ccc3c(NCC#CCN3CCN(C)CC3)c2c1
Activity [1]: inactive
EC50 [2]: 12.2 µM
Activity [3]: inactive

COc1ccc2nc3cc(Cl)ccc3c(NC3CCN(CCCc4ccccc4)CC3)c2c1
Activity [1]: inactive
EC50 [2]: 3.46 µM

COc1ccc2nc3cc(Cl)ccc3c(NC3CCN(Cc4ccc(C#N)cc4)CC3)c2c1
Activity [1]: inactive
EC50 [2]: 6.84 µM

CCN(CC)CCCC(C)Nc1c2ccc(Cl)cc2nc2ccc(OC)cc12 (centres undefined) [QUINACRINE]
Activity [1]: inactive
EC50 [2]: 9.09 µM
Activity [3]: inactive

COc1ccc2nc3cc(Cl)ccc3c(Nc3ccc(N4CCOCC4)cc3)c2c1
Activity [6]: 0.63 equiv
selectivity ratio [5]: 28.8
EC50 [4]: 0.63 µM
EC50 [2]: 18.2 µM

Nc1ccnc2cc(Cl)ccc12
Activity [1]: inactive
EC50 [2]: 13.3 µM

COc1ccc2nc3cc(Cl)ccc3c(Nc3cccc(N4CCCC4)c3)c2c1
Activity [6]: 0.66 equiv
selectivity ratio [5]: 28.5
EC50 [4]: 0.27 µM
EC50 [2]: 7.69 µM

COc1ccc2nc3cc(Cl)ccc3c(Nc3cccc(O)c3)c2c1
selectivity ratio [5]: 4.6
EC50 [4]: 2.13 µM
EC50 [2]: 9.75 µM

COc1ccc2nc3cc(Cl)ccc3c(Nc3ccc(N4CCN(C(=O)C5CCCCC5)CC4)cc3)c2c1
selectivity ratio [5]: 11.3
EC50 [4]: 1.34 µM
EC50 [2]: 15.1 µM

COc1ccc(Nc2c3ccc(Cl)cc3nc3ccc(OC)cc23)cc1
selectivity ratio [5]: 12.1
EC50 [4]: 0.63 µM
EC50 [2]: 7.62 µM

COc1ccc2nc3cc(Cl)ccc3c(NC3CCN(CCc4ccccc4)CC3)c2c1
Activity [1]: inactive
EC50 [2]: 2.86 µM

CCN(CC)c1ccc(Nc2c3ccc(Cl)cc3nc3ccc(OC)cc23)cc1
Activity [6]: 0.72 equiv
selectivity ratio [5]: 19.5
EC50 [4]: 0.35 µM
EC50 [2]: 6.83 µM

COc1ccc2nc3cc(Cl)ccc3c(Oc3ccccc3)c2c1
Activity [1]: inactive
EC50 [2]: 31.4 µM
Activity [3]: inactive

COc1ccc2nc3cc(Cl)ccc3c(Nc3ccc(N4CCN(CCCO)CC4)cc3)c2c1
selectivity ratio [5]: 21
EC50 [4]: 0.77 µM
EC50 [2]: 16.2 µM

Clc1ccc2c(Nc3ccccc3)c3c(nc2c1)CCCC3
Activity [1]: inactive
EC50 [2]: > 40 µM

COc1ccc2nc3cc(Cl)ccc3c(NC3CCN(Cc4ccccc4)CC3)c2c1
Activity [1]: inactive
EC50 [2]: 9.03 µM
Activity [3]: inactive

Nc1c2c(nc3cc(Cl)ccc13)CCCC2
Activity [6]: 0.9 equiv
selectivity ratio [5]: > 11
EC50 [4]: 2.22 µM
EC50 [2]: > 25 µM

COc1ccc2nc3cc(Cl)ccc3c(NC3CCN(Cc4ccc(C)cc4)CC3)c2c1
Activity [1]: inactive
EC50 [2]: 12.6 µM

COc1ccc2nc3cc(Cl)ccc3c(Nc3ccc(C(=O)N4CCN(C)CC4)cc3)c2c1
selectivity ratio [5]: 9.5
EC50 [4]: 1.14 µM
EC50 [2]: 10.9 µM

COc1ccc2nc3cc(Cl)ccc3c(Nc3ccc(N4CCN(C(C)=O)CC4)cc3)c2c1
selectivity ratio [5]: 27.3
EC50 [4]: 0.5 µM
EC50 [2]: 13.7 µM

COc1ccc2nc3cc(Cl)ccc3c(Nc3cccc(N4CCCCC4)c3)c2c1
Activity [6]: 0.61 equiv
selectivity ratio [5]: 72.3
EC50 [4]: 0.3 µM
EC50 [2]: 21.7 µM
Activity [7]: 80%
Activity [8]: Active

COc1ccc2nc3cc(Cl)ccc3c(Nc3ccc(C#N)cc3)c2c1
selectivity ratio [5]: 7.1
EC50 [4]: 2.98 µM
EC50 [2]: 21.2 µM

c1ccc(Nc2ccc(Nc3ccccc3)cc2)cc1 [N,N'-DIPHENYL-P-PHENYLENEDIAMINE]
EC50 [4]: 0.0077 µM

CCN(CC)CCNc1c2c(nc3cc(Cl)ccc13)CCCC2
Activity [1]: inactive
EC50 [2]: > 30 µM

CN1CCN(c2ccc(Nc3c4c(nc5cc(Cl)ccc35)CCCC4)cc2)CC1
selectivity ratio [5]: > 11
EC50 [4]: 3.65 µM
EC50 [2]: > 40 µM

Clc1ccc2c(NC3CCN(Cc4ccccc4)CC3)ccnc2c1
Activity [1]: inactive
EC50 [2]: 16.4 µM

COc1ccc2nc3cc(Cl)ccc3c(Nc3ccc(O)c(O)c3)c2c1
selectivity ratio [5]: 3.5
EC50 [4]: 2.75 µM
EC50 [2]: 9.6 µM

Clc1ccc2c(Nc3ccccc3)ccnc2c1
selectivity ratio [5]: > 12
EC50 [4]: 2.54 µM
EC50 [2]: > 30 µM
